One assay addresses human MRGX2 receptor (Homo sapiens (Human), UniProt Q96LB1). Nature of the assay: In vitro radioligand binding assay (Kd). Particulars: membrane from SF9 cells overexpressing human MRGX2; 3H-labeled ligand; pH 7.4, room temperature, 60 minutes. As to the method:
In vitro Radioligand Binding Assay (Kd)
Equilibrium dissociation constants, Kd, for many of the compounds described in the Examples section (“test compounds”) are determined in the presence cellular membrane prepared from SF9 cell lines overexpressing the human MRGX2 receptor. The assay is carried out in a 96-well plate (Greiner V-Bottom #651201). […] The assay mixtures, which comprise MRGX2 receptor, radiolabeled ligand and test compound, are incubated at room temperature (˜22° C.) for 60 minutes to reach equilibrium. After incubation, the assay mixtures are collected on a filter mat (Filtermat A, Perkin Elmer) using a cell harvester (Harvester 96, TOMTEC). The filter mat is completely dried. A solid scintillant (Meltilex, Perkin Elmer) is added to each filter membrane and the level of radioactivity (“Signal”) from each well (assay mixture) is recorded using a scintillation counter (Trilux Microbeta, PerkinElmer). Kd is determined by curve-fitting the dose response data ([I], Signal) for each set of samples to the equation,
[formula] where [I] is the concentration of the test compound. The data are reported as pKd

In assay [1] the target is hMRGX2 (CHO-K1 cells overexpressing MRGX2) (Homo sapiens (Human), UniProt Q96LB1). Nature of the assay: In vitro inhibition (EC50) of intracellular calcium flux, FLIPR Tetra, substance P stimulation. Particulars: stimulated with MRGX2 ligand substance P, FLIPR Calcium 5, read-out: hMRGX2 Cellular Potency (pEC50) (converted). The class given is cell-based. Summed up:
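CHO-K1 cells overexpressing human MRGX2, loaded with Calcium 5 dye for 30 min at 37 °C, then given compound (11-point, top 10 μM).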

The structures appear in SMILES notation.

Sequence of hMRGX2 (CHO-K1 cells overexpressing MRGX2) (Q96LB1 whole entry): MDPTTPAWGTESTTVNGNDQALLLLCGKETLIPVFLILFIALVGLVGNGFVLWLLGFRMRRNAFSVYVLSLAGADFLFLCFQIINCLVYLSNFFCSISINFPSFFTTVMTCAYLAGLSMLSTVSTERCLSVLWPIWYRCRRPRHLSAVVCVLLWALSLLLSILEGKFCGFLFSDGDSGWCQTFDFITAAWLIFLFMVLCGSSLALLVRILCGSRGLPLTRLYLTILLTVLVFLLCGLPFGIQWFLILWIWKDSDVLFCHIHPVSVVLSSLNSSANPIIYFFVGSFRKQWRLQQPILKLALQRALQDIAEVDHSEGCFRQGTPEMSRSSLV
Sequence of human MRGX2 receptor (Q96LB1 whole entry): as above

In the case of `O=S1(=O)N=C(NCc2nccs2)Nc2c(-c3cccc(F)c3Cl)cccc21` [Example 65, 5-(2-chloro-3-fluorophenyl)-3-((thiazol-2-ylmethyl)amino)-4H-benzo[e][1,2,4]thiadiazine 1,1-dioxide], on human MRGX2 receptor, the “hMRGX2 Binding Affinity (pKd)” value was 7.055. For the same compound, the EC50 in assay [1] is 0.0107 µM.
Turning to `CCNC1=NS(=O)(=O)c2cccc(-c3cccc(F)c3Cl)c2N1` [Example 39, 5-(2-chloro-3-fluorophenyl)-3-(ethylamino)-4H-benzo[e][1,2,4]thiadiazine 1,1-dioxide], on human MRGX2 receptor, the “hMRGX2 Binding Affinity (pKd)” value is 7.055. Besides, the EC50 in assay [1] was 0.052 µM.
With `O=S1(=O)N=C(NCCF)Nc2c(-c3cccc(F)c3Cl)cccc21` [Example 147, 5-(2-chloro-3-fluorophenyl)-3-((2-fluoroethyl)amino)-4H-benzo[e][1,2,4]thiadiazine 1,1-dioxide], on human MRGX2 receptor, the “hMRGX2 Binding Affinity (pKd)” value turned out to be 6.67. In assay [1], the EC50 was 0.0511 µM.
Consider `O=S1(=O)N=C(NCc2ncccc2F)Nc2c(-c3ccccc3Cl)cc(F)cc21` [Example 16, 5-(2-chlorophenyl)-7-fluoro-3-(((3-fluoropyridin-2-yl)methyl)amino)-4H-benzo[e][1,2,4]thiadiazine 1,1-dioxide], for which, on human MRGX2 receptor, the “hMRGX2 Binding Affinity (pKd)” value was 7.5. The EC50 in assay [1] is 0.0103 µM.
As to `COCCNC1=NS(=O)(=O)c2cc(F)cc(-c3cccc(F)c3Cl)c2N1` [Example 4, 5-(2-chloro-3-fluorophenyl)-7-fluoro-3-((2-methoxyethyl)amino)-4H-benzo[e][1,2,4]thiadiazine 1,1-dioxide], at human MRGX2 receptor, the “hMRGX2 Binding Affinity (pKd)” value is reported as 6.975. In assay [1], the EC50 is 0.0154 µM.
The corresponding values for `CCNC1=NS(=O)(=O)c2cc(F)cc(-c3cccc(F)c3Cl)c2N1` [Example 6, 5-(2-chloro-3-fluorophenyl)-3-(ethylamino)-7-fluoro-4H-benzo[e][1,2,4]thiadiazine 1,1-dioxide] are 6.78 and 0.0216 µM.
As for `O=S1(=O)N=C(NCc2ncccn2)Nc2c(-c3cccc(F)c3Cl)cccc21` [Example 66, 5-(2-chloro-3-fluorophenyl)-3-((pyrimidin-2-ylmethyl)amino)-4H-benzo[e][1,2,4]thiadiazine 1,1-dioxide], the “hMRGX2 Binding Affinity (pKd)” value at human MRGX2 receptor is on record as 7.22. In addition, the EC50 in assay [1] is 0.0294 µM.
As to `COCCNC1=NS(=O)(=O)c2cccc(-c3cccc(F)c3Cl)c2N1` [Example 2, 5-(2-chloro-3-fluorophenyl)-3-((2-methoxyethyl)amino)-4H-benzo[e][1,2,4]thiadiazine 1,1-dioxide], on human MRGX2 receptor, the “hMRGX2 Binding Affinity (pKd)” value is reported as 6.984. The EC50 in assay [1] was 0.0519 µM.
On to `COCCNC1=NS(=O)(=O)c2cccc(-c3cccc(F)c3C#N)c2N1` [Example 125, 2-fluoro-6-(3-((2-methoxyethyl)amino)-1,1-dioxido-4H-benzo[e][1,2,4]thiadiazin-5-yl)benzonitrile], for which the “hMRGX2 Binding Affinity (pKd)” value on human MRGX2 receptor is reported as 6.545. The EC50 in assay [1] was 0.0782 µM.
On to `CC(C)c1ccc(NC2=NS(=O)(=O)c3cccc(C4CC4)c3N2)cc1` [Example 109, 5-cyclopropyl-3-((4-isopropylphenyl)amino)-4H-benzo[e][1,2,4]thiadiazine 1,1-dioxide], for which the “hMRGX2 Binding Affinity (pKd)” value on human MRGX2 receptor is reported as 6.575. In addition, the EC50 in assay [1] is 0.106 µM.
Consider `O=S1(=O)N=C(NCC(F)F)Nc2c(-c3cccc(F)c3Cl)cccc21` [Example 34, 5-(2-chloro-3-fluorophenyl)-3-((2,2-difluoroethyl)amino)-4H-benzo[e][1,2,4]thiadiazine 1,1-dioxide], for which, on human MRGX2 receptor, the “hMRGX2 Binding Affinity (pKd)” value was 7.025. For the same compound, in assay [1], the EC50 is 0.0385 µM.
As to `Cc1ccccc1-c1cccc2c1NC(NCc1ccco1)=NS2(=O)=O` [Example 137, 3-((furan-2-ylmethyl)amino)-5-(o-tolyl)-4H-benzo[e][1,2,4]thiadiazine 1,1-dioxide], at human MRGX2 receptor, the “hMRGX2 Binding Affinity (pKd)” value is recorded as 6.54. The EC50 in assay [1] was 0.0791 µM.
Turning to `CNC1=NS(=O)(=O)c2cccc(-c3ccccc3Cl)c2N1` [Example 43, 5-(2-chlorophenyl)-3-(methylamino)-4H-benzo[e][1,2,4]thiadiazine 1,1-dioxide], the “hMRGX2 Binding Affinity (pKd)” value on human MRGX2 receptor is given as 6.47. The EC50 in assay [1] was 0.102 µM.
Take `CC(C)c1ccc(NC2=NS(=O)(=O)c3cccc(-c4cnn(C5CCC5)c4)c3N2)cc1` [Example 105, 5-(1-cyclobutyl-1H-pyrazol-4-yl)-3-((4-isopropylphenyl)amino)-4H-benzo[e][1,2,4]thiadiazine 1,1-dioxide]: the “hMRGX2 Binding Affinity (pKd)” value on human MRGX2 receptor turned out to be 6.06. In assay [1], the EC50 is 0.119 µM.
For `Cc1ccccc1-c1cccc2c1NC(NCc1ccccn1)=NS2(=O)=O` [Example 162, 3-((pyridin-2-ylmethyl)amino)-5-(o-tolyl)-4H-benzo[e][1,2,4]thiadiazine 1,1-dioxide], the “hMRGX2 Binding Affinity (pKd)” value at human MRGX2 receptor stood at 6.51. For the same compound, the EC50 in assay [1] is 0.1 µM.
Consider `CN1CCOC(CNC2=NS(=O)(=O)c3cccc(-c4cccc(F)c4Cl)c3N2)C1` (stereo not shown) [Example 57, 5-(2-chloro-3-fluorophenyl)-3-(((4-methylmorpholin-2-yl)methyl)amino)-4H-benzo[e][1,2,4]thiadiazine 1,1-dioxide], for which the EC50 in assay [1] is 0.173 µM.
`COC(C)CNC1=NS(=O)(=O)c2cccc(-c3cccc(F)c3C#N)c2N1` (stereo not shown) [Example 150, 2-fluoro-6-(3-((2-methoxypropyl)amino)-1,1-dioxido-4H-benzo[e][1,2,4]thiadiazin-5-yl)benzonitrile]: the EC50 in assay [1] was 0.416 µM.
As for `CC(C)c1ccc(NC2=NS(=O)(=O)c3cccc(C4CCC4)c3N2)cc1` [Example 111, 5-cyclobutyl-3-((4-isopropylphenyl)amino)-4H-benzo[e][1,2,4]thiadiazine 1,1-dioxide], the EC50 in assay [1] is 0.106 µM.
Take `Cc1cc(NC2=NS(=O)(=O)c3cccc(-c4cccc(F)c4Cl)c3N2)nn1C(C)C` [Example 74, 5-(2-chloro-3-fluorophenyl)-3-((1-isopropyl-5-methyl-1H-pyrazol-3-yl)amino)-4H-benzo[e][1,2,4]thiadiazine 1,1-dioxide]: in assay [1], the EC50 is 0.746 µM.
Still for that read-out and setting: to `N#Cc1c(F)cccc1-c1cccc2c1NC(NCCF)=NS2(=O)=O` [Example 149, 2-fluoro-6-(3-((2-fluoroethyl)amino)-1,1-dioxido-4H-benzo[e][1,2,4]thiadiazin-5-yl)benzonitrile] belongs 0.32 µM; to `CC(C)c1ccc(NC2=NS(=O)(=O)c3cccc(-c4cnn(C5COC5)c4)c3N2)cc1` [Example 101, 3-((4-isopropylphenyl)amino)-5-(1-(oxetan-3-yl)-1H-pyrazol-4-yl)-4H-benzo[e][1,2,4]thiadiazine 1,1-dioxide], 0.0457 µM; to `O=S1(=O)N=C(NCC(F)F)Nc2c(-c3ccccc3Cl)cccc21` [Example 44, 5-(2-chlorophenyl)-3-((2,2-difluoroethyl)amino)-4H-benzo[e][1,2,4]thiadiazine 1,1-dioxide], 0.186 µM.
Take `COCCNC1=NS(=O)(=O)c2cccc(-c3ccc(F)c(F)c3C)c2N1` [Example 170, 5-(3,4-difluoro-2-methylphenyl)-3-((2-methoxyethyl)amino)-4H-benzo[e][1,2,4]thiadiazine, 1,1-dioxide]: the EC50 in assay [1] is 0.638 µM.
Consider `CNC1=NS(=O)(=O)c2cccc(-c3cccc(F)c3F)c2N1` [Example 26, 5-(2,3-difluorophenyl)-3-(methylamino)-4H-benzo[e][1,2,4]thiadiazine 1,1-dioxide], for which, in assay [1], the EC50 is 0.389 µM.
Take `COc1cccnc1CNC1=NS(=O)(=O)c2cccc(-c3cccc(F)c3Cl)c2N1` [Example 122, 5-(2-chloro-3-fluorophenyl)-3-(((3-methoxypyridin-2-yl)methyl)amino)-4H-benzo[e][1,2,4]thiadiazine 1,1-dioxide]: the EC50 in assay [1] is 0.0303 µM.
On to `CO[C@H](C)CNC1=NS(=O)(=O)c2cccc(-c3cccc(F)c3F)c2N1` (single isomer, unassigned) [Example 24], for which the EC50 in assay [1] was 0.0641 µM.
Take `COCCNC1=NS(=O)(=O)c2cccc(-c3cc(F)cc(F)c3F)c2N1` [Example 168, 3-((2-methoxyethyl)amino)-5-(2,3,5-trifluorophenyl)-4H-benzo[e][1,2,4]thiadiazine 1,1-dioxide]: the EC50 in assay [1] is 0.47 µM.
In the case of `O=S1(=O)N=C(NCc2ncco2)Nc2c(-c3cccc(F)c3F)cccc21` [Example 27, 5-(2,3-difluorophenyl)-3-((oxazol-2-ylmethyl)amino)-4H-benzo[e][1,2,4]thiadiazine 1,1-dioxide], in assay [1], the EC50 is 0.344 µM.
On the same count and under the same terms, under `O=S1(=O)N=C(NCC2CCC2)Nc2c(-c3cc(F)cc(F)c3)cccc21` [Example 81, 3-((cyclobutylmethyl)amino)-5-(3,5-difluorophenyl)-4H-benzo[e][1,2,4]thiadiazine 1,1-dioxide] stands 0.384 µM; under `CCNC1=NS(=O)(=O)c2cccc(-c3cccc(F)c3F)c2N1` [Example 165, 5-(2,3-difluorophenyl)-3-(ethylamino)-4H-benzo[e][1,2,4]thiadiazine 1,1-dioxide], 0.288 µM.
Still for that read-out and setting: under `COC(C)CNC1=NS(=O)(=O)c2cccc(-c3ccccc3Cl)c2N1` (stereo not shown) [Example 40, 5-(2-chlorophenyl)-3-((2-methoxypropyl)amino)-4H-benzo[e][1,2,4]thiadiazine 1,1-dioxide] stands 0.0762 µM.
